In patent US8106055B2, “Substituted amide compounds” (Gruenenthal GmbH, priority 2007, dated 2012):

Legend:
[1] = molecular target: T1, serotonin (5-HT) reuptake (Rattus norvegicus, UniProt P31652); assay: Inhibition of serotonin (5HT) reuptake in synaptosomes from rat brain; assay type: biochemical; details: test concentration of 10 μM
T1 construct: synaptosomes are freshly isolated from areas of the rat brain; from tissue; host or cells: rat brain synaptosomes (P2 fraction)
In short: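 Freshly isolated rat brain synaptosomes (P2 fraction) used for 5-HT reuptake. Test compound at 10 μM, activity given as % inhibition.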

[2] = molecular target: T2, bradykinin 1 receptor (B1R) of the rat (Rattus norvegicus, UniProt P97583); assay: Functional investigation on the rat bradykinin 1 receptor (B1R), Ca2+ FLIPR assay in CHO K1 rB1R cells; assay type: cell-based; details: B1R antagonism rat; test substance 10 μM; Ca2+ FLIPR, CHO K1 rB1R cells
T2 construct: expressed in transfected cells; host or cells: CHO K1 cells
T2 sequence (P97583 1-337): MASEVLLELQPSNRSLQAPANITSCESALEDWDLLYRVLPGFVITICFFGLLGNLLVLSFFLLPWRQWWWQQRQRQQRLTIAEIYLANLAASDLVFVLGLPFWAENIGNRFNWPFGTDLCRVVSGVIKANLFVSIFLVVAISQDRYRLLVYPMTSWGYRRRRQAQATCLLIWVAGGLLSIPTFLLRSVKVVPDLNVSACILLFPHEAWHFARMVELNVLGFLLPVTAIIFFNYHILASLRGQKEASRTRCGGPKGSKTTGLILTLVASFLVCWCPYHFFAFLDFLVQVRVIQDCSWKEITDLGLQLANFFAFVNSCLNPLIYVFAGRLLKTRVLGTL
In short: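 Cells were dye-loaded with Fluo-4 plus probenecid, then test substances added and Ca2+ influx compared with agonist control for % activation. After 10-20 min, EC80 agonist (Lys-Des-Arg9-bradykinin human; Des-Arg9-bradykinin rat) was applied; suppression gave % inhibition and IC50 values.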

T1 sequence (P31652 whole entry): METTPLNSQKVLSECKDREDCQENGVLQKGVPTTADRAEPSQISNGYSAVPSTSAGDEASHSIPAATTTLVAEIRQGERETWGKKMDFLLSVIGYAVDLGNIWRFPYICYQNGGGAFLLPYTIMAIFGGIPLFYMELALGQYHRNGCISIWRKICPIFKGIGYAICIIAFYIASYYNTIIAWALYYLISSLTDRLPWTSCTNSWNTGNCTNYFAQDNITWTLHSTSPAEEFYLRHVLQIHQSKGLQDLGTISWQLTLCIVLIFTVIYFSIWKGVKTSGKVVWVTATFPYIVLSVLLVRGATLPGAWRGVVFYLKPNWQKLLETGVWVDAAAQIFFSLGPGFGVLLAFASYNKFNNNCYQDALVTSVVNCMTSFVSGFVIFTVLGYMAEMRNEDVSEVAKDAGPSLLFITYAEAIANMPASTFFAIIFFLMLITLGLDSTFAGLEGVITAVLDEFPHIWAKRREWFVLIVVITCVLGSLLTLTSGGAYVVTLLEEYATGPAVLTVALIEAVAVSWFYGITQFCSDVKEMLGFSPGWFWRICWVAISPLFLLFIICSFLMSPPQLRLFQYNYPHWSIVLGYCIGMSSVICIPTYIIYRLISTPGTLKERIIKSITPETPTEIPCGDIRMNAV

SMILES	5-HT (inhibition of reuptake of serotonin, % inhibition) [1] [%]	B1R Ant. r [10 μM] % Inhibition [2] [%]
COc1ccc(S(=O)(=O)N2Cc3ccccc3CC2COCC(=O)NC2CCC(C(c3ccc(F)cc3)N(C)C)CC2)cc1 (stereo not shown) [Example 234]	95	20
Cc1cc(C)c(S(=O)(=O)N(C)CCOCC(=O)NC2CCC(C(c3cccs3)N(C)C)CC2)c(C)c1 (stereo not shown) [Example 235]	86	−8
COc1cc(C)c(S(=O)(=O)N(C)CCOCC(=O)NC2CCC(C(c3ccccc3)N(C)C)CC2)c(C)c1 (stereo not shown) [Example 239]	78	97
Cc1ccc(S(=O)(=O)N(C)CCOCC(=O)NCCC2CCC(C(c3cccc(F)c3)N(C)C)CC2)cc1 (stereo not shown) [Example 240]	87	−14
CN(C)C(c1ccc(Cl)cc1)C1CCC(CCNC(=O)COCCN(C)S(=O)(=O)c2ccc(F)cc2)CC1 (stereo not shown) [Example 241]	102	8
COc1ccc(S(=O)(=O)N(C)CCOCC(=O)NCC2CCC(C(c3ccccc3)N(C)C)CC2)cc1 (stereo not shown) [Example 242]	77	22
COc1ccc(S(=O)(=O)N2CCCCC2COCC(=O)NC2CCC(C(c3cccs3)N(C)C)CC2)cc1 (stereo not shown) [Example 243]	73	27
CN(C)C(c1ccc(F)cc1)C1CCC(CCNC(=O)COC2CCCCC2N(C)S(=O)(=O)c2ccc(Cl)c(Cl)c2)CC1 (stereo not shown) [Example 244]	88	−5
CN(C)C(c1cccc(F)c1)C1CCC(NC(=O)COCCN(C)S(=O)(=O)c2ccc(OC(F)(F)F)cc2)CC1 (stereo not shown) [Example 246]	91	15
CN(C)C(c1cccc(F)c1)C1CCC(CCNC(=O)COC2CCN(S(=O)(=O)c3ccc(Cl)cc3)C2)CC1 (stereo not shown) [Example 247]	89	8
COc1cc(C)c(S(=O)(=O)N(C)CCOCC(=O)NCC2CCC(C(c3cccc(F)c3)N(C)C)CC2)c(C)c1 (stereo not shown) [Example 248]	90	102
CN(C)C(c1ccc(F)cc1)C1CCC(CNC(=O)COCCN(C)S(=O)(=O)c2ccc(Cl)cc2Cl)CC1 (stereo not shown) [Example 249]	95	55
COc1ccc(S(=O)(=O)N(C)CCOCC(=O)NC2CCC(C(c3cccc(F)c3)N(C)C)CC2)cc1 (stereo not shown) [Example 250]	84	38
COc1cc(C)c(S(=O)(=O)N2CCC(OCC(=O)NC3CCC(C(c4cccc(F)c4)N(C)C)CC3)C2)c(C)c1 (stereo not shown) [Example 251]	98	87
COc1cc(C)c(S(=O)(=O)N2CCC(OCC(=O)NCC3CCC(C(c4cccc(F)c4)N(C)C)CC3)C2)c(C)c1C (stereo not shown) [Example 252]	93	4
COc1cc(C)c(S(=O)(=O)N2CCC(OCC(=O)NCCC3CCC(C(c4cccc(F)c4)N(C)C)CC3)C2)c(C)c1C (stereo not shown) [Example 253]	96	18
COc1cc(C)c(S(=O)(=O)N(CCOCC(=O)NCCC2CCC(C(c3cccs3)N(C)C)CC2)Cc2ccccc2)c(C)c1C (stereo not shown) [Example 254]	94	−1
COc1ccc(S(=O)(=O)N2CCCCC2COCC(=O)NC2CCC(C(c3cccc(F)c3)N(C)C)CC2)cc1 (stereo not shown) [Example 255]	91	47

SMILES	5-HT (inhibition of reuptake of serotonin, % inhibition) [1] [%]	B1R Ant. r [10 μM] % Inhibition [2] [%]
CN(C)C(c1ccc(F)cc1)C1CCC(NC(=O)COC2CCCCC2N(C)S(=O)(=O)c2ccc(Cl)c(Cl)c2)CC1 (stereo not shown) [Example 256]	84	1
CN(C)C(c1cccc(F)c1)C1CCC(CNC(=O)COC2CCN(S(=O)(=O)c3ccc(Cl)cc3)C2)CC1 (stereo not shown) [Example 258]	84	12
CN(C)C(c1cccc(F)c1)C1CCC(CCNC(=O)COC2CCN(S(=O)(=O)c3ccc(Cl)cc3Cl)C2)CC1 (stereo not shown) [Example 259]	90	25
COc1ccc(S(=O)(=O)N2CCC(OCC(=O)NCC3CCC(C(c4ccc(Cl)cc4)N(C)C)CC3)C2)cc1OC (stereo not shown) [Example 260]	88	9
COc1ccc(S(=O)(=O)N2CCCCC2COCC(=O)NC2CCC(C(c3cccs3)N(C)C)CC2)cc1OC (stereo not shown) [Example 261]	85	−3
COc1ccc(S(=O)(=O)N2CCC(OCC(=O)NCCC3CCC(C(c4cccc(F)c4)N(C)C)CC3)C2)cc1OC (stereo not shown) [Example 262]	90	36
CN(C)C(c1ccc(Cl)cc1)C1CCC(CNC(=O)COCCN(C)S(=O)(=O)c2ccc(F)cc2)CC1 (stereo not shown) [Example 263]	102	32
Cc1cc(C)c(S(=O)(=O)N2CCC(OCC(=O)NCCC3CCC(C(c4cccc(F)c4)N(C)C)CC3)C2)c(C)c1 (stereo not shown) [Example 264]	82	59
COc1cc(C)c(S(=O)(=O)N2CCC(OCC(=O)NCC3CCC(C(c4cccc(F)c4)N(C)C)CC3)C2)c(C)c1 (stereo not shown) [Example 265]	95	97
CN(C)C(c1cccc(F)c1)C1CCC(NC(=O)COCC2CCCN(S(=O)(=O)c3ccccc3)C2)CC1 (stereo not shown) [Example 266]	97	24
CN(C)C(c1ccc(F)cc1)C1CCC(CNC(=O)COCC2CCCN2S(=O)(=O)c2ccc(Cl)c(Cl)c2)CC1 (stereo not shown) [Example 267]	94	−13
COc1ccc(S(=O)(=O)N2CCCC2COCC(=O)NC2CCC(C(c3cccc(F)c3)N(C)C)CC2)cc1 (stereo not shown) [Example 268]	92	25
CN(C)C(c1ccc(Cl)cc1)C1CCC(CNC(=O)COC2CCCCC2N(C)S(=O)(=O)c2ccc(Cl)c(Cl)c2)CC1 (stereo not shown) [Example 269]	87	−3
CN(C)C(c1cccc(F)c1)C1CCC(NC(=O)COC2CCN(S(=O)(=O)c3ccccc3)C2)CC1 (stereo not shown) [Example 271]	93	−13
Cc1ccc(S(=O)(=O)N2CCC(OCC(=O)NCCC3CCC(C(c4cccs4)N(C)C)CC3)C2)cc1 (stereo not shown) [Example 272]	88	32
Cc1ccc(S(=O)(=O)N(C)CCOCC(=O)NCC2CCC(C(c3ccc(Cl)cc3)N(C)C)CC2)cc1 (stereo not shown) [Example 273]	91	37
CN(C)C(c1ccc(Cl)cc1)C1CCC(CCNC(=O)COCCN(C)S(=O)(=O)c2c(Cl)cccc2Cl)CC1 (stereo not shown) [Example 274]	81	61
